The values that follow come from publication PMC10054091, “Maleic Acid as a Co-Former for Pharmaceutically Active GABA Derivatives: Mechanochemistry or Solvent Crystallization?” (Materials, 2023).

≈ marks a conversion by molar mass, not a printed value. Where “and” joins values, the source holds several entries; their conditions need not be identical. Identical values can stand only once.

Data set [1] is described as follows: Solubility in aqueous medium by 1H-NMR of saturated solutions. The procedure:
Solubilities: Determination of substance solubilities were performed through ^1H-NMR spectroscopy with a Bruker Avance III NMR-spectrometer at 600 MHz. Saturated solutions of crystalline material were placed in an incubator at 25 °C and moved for 60 min^−1. Three samples of each investigated substance were left for three days under these conditions. Subsequently, 50 μL of the solution was removed from the samples and added to 450 μL of D2O for ^1H-NMR measurements. Solubility was determined by the ratio of integrated solvent to substance peak. Solubility values are presented as averages over the recorded samples with the error margin according to their standard deviation. […]
7 Solubility determination details
Solubilities were determined with 1H-NMR. Three samples for each single compound and three samples for each received maleate gained through grinding or solvent crystalliz ation were prepared. For this, dispersions of the investigated compounds in water were prepared in such a way that no complete dissolution would occur after three days at 25 °C in an incubator shaking with 60 min -1. Subsequently, 50 μL of liquid were removed from the samples and added to 450 μL of D 2O prepared in an NMR-tube. 1H-NMR measurements were conducted on a Bruker Avance III NMR-spectrometer at 600 MHz. Solubilities were determined by phase and baseline correction of the received spectrum in MestReNova software x64 14.2.0, application of D 2O shift on the solvent peak from the MestReNova […]
database. Integration of a chosen signal in the received spectrum and furt her integration of the solvent signal. The latter signal was always integrated in the borders of 5.000 – 4.600 ppm, the product signals were integrated in as narrow a range as possible ( Table S7). Trace water in D 2O w as considered negligible. Solubilities were calculated by the following […]
Where S p is the solubility of the API in gL -1, M p is the molar mass of the targeted API in g mol-1, I w is the value of the water integral received, n is an adjustment factor necessary if […]
= 2 because solvent is water), M w is the molar mass of water in gmol -1 and ρw is the density of water at 25 °C in gL-1. Error was calculated as the standard deviation of the three recorded samples according to Equation 2.
Here V is the standard deviation, x is the average of the three solubility values, x̅ each single solubility value and n the number of samples, three.

The conditions of data set [2]: given enough time. How it is done:
PXRD: Powder patterns were recorded on a Rigaku Miniflex 300 powder diffractometer with a Cu-Source and Kα radiation at […] in Θ/2Θ-geometry. Measurements were conducted at ambient temperature in a range of 5–50° 2Θ.

For data set [3] the following is noted: cited from earlier work.
Where [4] appears, read: API solubility, aqueous medium, 25 °C, saturated solutions after three days, 1H-NMR, average of three samples, _M = mechanochemically prepared sample.
Setting [5] is: product obtained by grinding (mechanochemical), water, 25 °C, three days.
[6] abbreviates: product obtained from solution (solvent product), water, 25 °C, three days.
The mark [7] stands for this setting: Table S7, water, 25 °C, three days, three samples, _sol = solvent crystallization, _mill = grinding.
Where [8] appears, read: aqueous medium, 25 °C, three days.

Regarding `CC(C)CC(CN)CC(=O)O.O=C(O)C=CC(=O)O` (racemic) [(rac)-3-MA, (rac)-Pregabalin maleate], the Solubility in data set [1] (setting [4]) came out at 719 gL^−1; in data set [1] (API solubility, aqueous medium, 25 °C, saturated solutions after three days, 1H-NMR, average of three samples, _M = mechanochemically prepared sample, listed as (rac)-3-MA_M), 556 gL^−1; in data set [1] (setting [5]) it was 556 ± 19 gL^−1; in data set [1] (setting [6]), 719 ± 10 gL^−1. In addition, the “Sp ± V (solubility of the API ± standard deviation)” value in data set [1] (Table S7, water, 25 °C, three days, three samples, _sol = solvent crystallization, _mill = grinding, listed as (rac)-3-MA_mill) amounted to 559 ± 19 gL-1; in data set [1] (Table S7, water, 25 °C, three days, three samples, _sol = solvent crystallization, _mill = grinding, listed as (rac)-3-MA_sol), 719 ± 10 gL-1.

As to `CC(C)CC(CN)CC(=O)O.O=C(O)C=CC(=O)O` (racemic) [(rac)-3-MA-I, (rac)-Pregabalin maleate I], the “Phase stability of the solid form over time” value in data set [2] is on record as “converts to (rac)-3-MA-II”.

For orientation: thermodynamic solubility means solubility found after equilibrating the solid with the medium. As to `CC(C)CC(CN)CC(=O)O` (racemic) [(rac)-3•H2O, (rac)-Pregabalin hydrate, reference compound], in data set [1] (setting [7]), the “Sp ± V (solubility of the API ± standard deviation)” value came out at 33 ± 1 gL-1. For the same compound, in data set [1] (aqueous medium, 25 °C), the “Increase of API solubility in its maleate compared to the pure form” value (“Increase of API solubility” for short) was 23 fold. The compound further came in with a solubility (thermodynamic) at 3 days in data set [1] (water) of 33 mg/mL.

Consider `NCC1(CC(=O)O)CCCCC1.O=C(O)C=CC(=O)O` [2-MA, Gabapentin maleate], for which the Solubility in data set [1] (setting [4]) is given as 218 ± 8 gL^−1; in data set [1] (API solubility, aqueous medium, 25 °C, saturated solutions after three days, 1H-NMR, average of three samples, _M = mechanochemically prepared sample, listed as 2-MA_M), 218 gL^−1. Also, the “Sp ± V (solubility of the API ± standard deviation)” value in data set [1] (setting [7]) was determined as 218 ± 8 gL-1.

Regarding `NCC(CC(=O)O)c1ccccc1.O=C(O)C=CC(=O)O` (stereo not drawn) [4-MA, Phenibut maleate], the Solubility in data set [1] (setting [4]) was found to be 124 gL^−1; in data set [1] (API solubility, aqueous medium, 25 °C, saturated solutions after three days, 1H-NMR, average of three samples, _M = mechanochemically prepared sample, listed as 4-MA_M), 128 gL^−1. The “Sp ± V (solubility of the API ± standard deviation)” value is recorded as 128 ± 8 gL-1 in data set [1] (Table S7, water, 25 °C, three days, three samples, _sol = solvent crystallization, _mill = grinding, listed as 4-MA_mill) and 124 ± 4 gL-1 in data set [1] (Table S7, water, 25 °C, three days, three samples, _sol = solvent crystallization, _mill = grinding, listed as 4-MA_sol). Besides, the “Change of solubility of the maleate versus the pure API (in words)” value in data set [1] (setting [8]) is “uniform increases in solubility”.

For the compound `NCC(CC(=O)O)c1ccc(Cl)cc1.O=C(O)C=CC(=O)O` (stereo not drawn) [5-MA, Baclofen maleate], the Solubility in data set [1] (setting [4]) came to 6 gL^−1. The “Sp ± V (solubility of the API ± standard deviation)” value in data set [1] (Table S7, water, 25 °C, three days, three samples, _sol = solvent crystallization, _mill = grinding, listed as 5-MA_mill) amounted to 6 ± 0.6 gL-1; in data set [1] (Table S7, water, 25 °C, three days, three samples, _sol = solvent crystallization, _mill = grinding, listed as 5-MA_sol), 6 ± 0.3 gL-1. The “Change of solubility of the maleate versus the pure API (in words)” value in data set [1] (setting [8]) is “uniform increases in solubility”.

As to `CC(C)C[C@H](CN)CC(=O)O` [(S)-3, (S)-Pregabalin, reference compound], the “Sp ± V (solubility of the API ± standard deviation)” value in data set [1] (setting [7]) is recorded as 41 ± 1 gL-1. Further, the “Increase of API solubility” value in data set [1] (aqueous medium, 25 °C, listed as (S)-Pregabalin) stood at 21 fold. Further, the solubility (thermodynamic) at 3 days in data set [1] (water) turned out to be 41 mg/mL (≈ 257 mM).

Consider `O=C(O)/C=C\C(=O)O` [MA, Maleic acid], for which, in data set [1], the Solubility stood at 687 ± 44 gL^−1 and the “Sp ± V (solubility of the API ± standard deviation)” value is 687 ± 44 gL-1. In data set [1] (water), this compound registered a thermodynamic solubility at 3 days of 687 mg/mL (≈ 5920 mM). In data set [3], the pKa1 is 1.74 and the pKa2 is listed as 5.81.

As for `NCC1(CC(=O)O)CCCCC1` [compound 2, Gabapentin, reference compound], in data set [1] (setting [7]), the “Sp ± V (solubility of the API ± standard deviation)” value was 174 ± 7 gL-1. Further, the thermodynamic solubility at 3 days in data set [1] (water) was 174 mg/mL (≈ 1020 mM). In addition, in data set [3], the “pKa of the acid function” value is on record as “around 4”.

Consider `CC(C)C[C@H](CN)CC(=O)O` [compound 3, Pregabalin, reference compound], for which the “Increase of API solubility” value in data set [1] (aqueous medium, 25 °C, listed as Pregabalin) is listed as “up to twentyfold”. In addition, the “pKa of the acid function” value in data set [3] was “around 4”.

For the compound `NCC(CC(=O)O)c1ccccc1` (stereo not drawn) [compound 4, Phenibut, reference compound], the “Sp ± V (solubility of the API ± standard deviation)” value in data set [1] (setting [7]) is recorded as 15 ± 0.3 gL-1. In data set [1] (aqueous medium, 25 °C), the “Increase of API solubility” value is on record as “eightfold”. In data set [1] (water), the thermodynamic solubility at 3 days was found to be 15 mg/mL (≈ 83.7 mM). Further, the “pKa of the acid function” value in data set [3] is reported as “around 4”.

Turning to `NCC(CC(=O)O)c1ccc(Cl)cc1` (stereo not drawn) [compound 5, Baclofen, reference compound], in data set [1], the “Increase of API solubility” value was “twofold” and the “Sp ± V (solubility of the API ± standard deviation)” value came to 3 ± 0.1 gL-1. Besides, in data set [1] (water), the solubility (thermodynamic) at 3 days was 3 mg/mL (≈ 14 mM). Also, the “pKa of the acid function” value in data set [3] is reported as “around 4”.

As for “(S)-Pregabalin maleate hydrate [(S)-3-MA•H2O]”, the Solubility was 977 gL^−1 in data set [1] (setting [4]); 809 gL^−1 in data set [1] (API solubility, aqueous medium, 25 °C, saturated solutions after three days, 1H-NMR, average of three samples, _M = mechanochemically prepared sample, listed as (S)-3-MA•H2O_M); 809 ± 8 gL^−1 in data set [1] (setting [5]); 977 ± 79 gL^−1 in data set [1] (setting [6]). The “Sp ± V (solubility of the API ± standard deviation)” value was 809 ± 8 gL-1 in data set [1] (Table S7, water, 25 °C, three days, three samples, _sol = solvent crystallization, _mill = grinding, listed as (S)-3-MA• H2O_mill) and 977 ± 79 gL-1 in data set [1] (Table S7, water, 25 °C, three days, three samples, _sol = solvent crystallization, _mill = grinding, listed as (S)-3-MA• H2O_sol).

For Gabapentin maleate hydrate [2-MA•H2O], the Solubility in data set [1] (setting [4]) is 241 ± 8 gL^−1 and 241 gL^−1. Also, in data set [1] (setting [7]), the “Sp ± V (solubility of the API ± standard deviation)” value is 241 ± 8 gL-1.
